This test in a line: Reaction with thionitrobenzoate (detection of thiol-reactive substances, loss of absorbance at 412 nm). The format is physicochemical. To be noted: for rate of reaction with thionitrobenzoate: aqueous solution at pH 7 and 25° C. The protocol:
A stock solution of 5-thio-2-nitrobenzoate (hereafter referred to as thionitrobenzoate) was prepared by reduction of 5,5′-dithiobis(2-nitrobenzoic acid) (hereafter referred to as DTNB, Aldrich Chemical Company). This stock solution was prepared by mixing 0.1 ml of 0.1 M DTNB dissolved in ethanol (396 mg of DTNB in 10 ml of ethanol), 0.1 ml of 1 M aqueous potassium phosphate buffer (prepared by mixing equal volumes of 1 M monobasic potassium phosphate with 1 M dibasic potassium phosphate), and 0.025 ml of 1 M sodium borohydride dissolved in 1 M NaOH on ice. After incubating this mixture for 10 minutes at ice temperature, 0.1 mL of 1 M monobasic potassium phosphate was added and the resultant solution was diluted to a final volume of 2 ml by addition of 1.675 ml of water.
An alternate method for preparation of a stock solution of thionitrobenzoate involves the use of 2-mercaptoethanol as reductant, in place of sodium borohydride. In this method a 10 mM solution of DTNB was prepared by mixing 39.6 mg of DTNB with 17 mg of sodium bicarbonate and 4 ml of ice-cold water. After allowing the effervescence to subside, this solution was mixed with 0.01 ml of 0.5 M trisodium ethylenediaminetetracetate and 0.1 ml of 1 M potassium phosphate buffer, then diluted to a final volume of 10 ml with water. A separate stock of 10 mM 2-mercaptoethanol was prepared by dilution of neat 2-mercaptoethanol (14.3 M) with water (serial dilution of 0.01 ml of neat 2-mercaptoethanol to 1 ml to give 0.143 M and then dilution of 0.07 ml of this solution to a final volume of 1 ml to give 10 mM). The stock of 8.7 mM thionitrobenzoate was prepared by mixing 2 ml of 1 M potassium phosphate buffer with 0.2 ml of 10 mM 2-mercaptoethanol and 0.1 ml of 10 mM aqueous DTNB.
If 0.01 ml of the 10 mM stock of thionitrobenzoate, obtained by sodium borohydride reduction of DTNB, was diluted with 0.89 ml of water and 0.1 ml of 1 M phosphate buffer, it gave an absorbance at 412 nm of 1.36 in a 1 cm pathlength cuvette. If 0.01 ml of the 8.7 mM stock of thionitrobenzoate obtained by 2-mercaptoethanol reduction of DTNB was diluted with 0.89 ml of water and 0.1 ml of 1 M phosphate buffer, it gave an absorbance at 412 nm of 1.18 in a 1 cm pathlength cuvette. […] (4 M^−1 s^−1).
(<0.05 M^−1 s^−1). DECOSMe (EXAMPLE 4) reacted with thionitrobenzoate under these conditions at a rate of 4 M^−1 s^−1. DETC-MeSO2 (EXAMPLE 5) reacted with thionitrobenzoate under these conditions at a rate of 0.4 M^−1 s^−1. S-Methyl-O-(N,N-diethylcarbamoyl)sulfinate (DECO2SMe, prepared by rearrangement of DETC-MeSO2 under the conditions described in EXAMPLE 4) reacted with thionitrobenzoate under these conditions at a rate of 14 M^−1 s^−1.

`CCN(CC)C(=O)S(C)(=O)=O` [DETC-MeSO2, S-Methyl-N,N-Diethylthiolcarbamate Sulfone]: the “rate of reaction with thionitrobenzoate” value came to 0.4 M⁻¹ s⁻¹.
Take `CCN(CC)C(=O)OS(C)=O` (stereo not drawn) [DECO2SMe, S-Methyl-O-(N,N-diethylcarbamoyl)sulfinate]: the “rate of reaction with thionitrobenzoate” value was 14 M⁻¹ s⁻¹.
On to `CCN(CC)C(=O)[S+](C)[O-]` (stereo not drawn) [DETC-MeSO, S-Methyl-N,N-Diethylthiolcarbamate Sulfoxide], for which, for the setting “0.01 ml of 5 mM aqueous solution, freshly synthesized, anaerobic conditions, up to 24 hours”, the “rate of reaction with thionitrobenzoate, prior to rearrangement to DECOSMe” value is “less than 0.01 M^−1 s^−1”.
Consider `CCN(CC)C(=O)OSC` [DECOSMe, S-Methyl-O-(N,N-Diethylcarbamoyl)Sulfenate], for which the “rate of reaction with thionitrobenzoate” value was 4 M⁻¹ s⁻¹. Also, where the note is “0.01 ml of 0.1 M aqueous solution added to thionitrobenzoate assay mixture, 25° C.”, the “half time of first-order decay of absorbance at 412 nm” value came out at 2.9 min. In addition, where the note is “0.01 ml of 0.1 M aqueous solution added, 25° C.”, the “rate of reaction with thionitrobenzoate (from first-order decay of absorbance at 412 nm)” value was determined as 4 M⁻¹ s⁻¹.

The values are drawn from patent publication US7250401B2, “Therapeutic compositions” (Advanced Therapeutics and Diagnostics, LC, priority 2001, dated 2007).
